Article PMC6934184, “Selective DNA-PKcs inhibition extends the therapeutic index of localized radiotherapy and chemotherapy” (The Journal of Clinical Investigation, 2019)

Biological target: T1, TYRO3 (RSE) (Homo sapiens, UniProt Q06418)
T1 construct: purchased Thermo Fisher Scientific (Life Technologies) SelectScreen
Experiment: SelectScreen Z'LYTE
Type: biochemical
Method in brief: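 Compound tested in SelectScreen activity assays, Z'LYTE for CSF1R, CDK1/cyclin B and MAP2K6 and Adapta for CAMK1. ATP for CAMK1 was listed as 10, and Km app was used for CSF1R. Results are expressed in percent.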

T1 sequence (Q06418 41-890): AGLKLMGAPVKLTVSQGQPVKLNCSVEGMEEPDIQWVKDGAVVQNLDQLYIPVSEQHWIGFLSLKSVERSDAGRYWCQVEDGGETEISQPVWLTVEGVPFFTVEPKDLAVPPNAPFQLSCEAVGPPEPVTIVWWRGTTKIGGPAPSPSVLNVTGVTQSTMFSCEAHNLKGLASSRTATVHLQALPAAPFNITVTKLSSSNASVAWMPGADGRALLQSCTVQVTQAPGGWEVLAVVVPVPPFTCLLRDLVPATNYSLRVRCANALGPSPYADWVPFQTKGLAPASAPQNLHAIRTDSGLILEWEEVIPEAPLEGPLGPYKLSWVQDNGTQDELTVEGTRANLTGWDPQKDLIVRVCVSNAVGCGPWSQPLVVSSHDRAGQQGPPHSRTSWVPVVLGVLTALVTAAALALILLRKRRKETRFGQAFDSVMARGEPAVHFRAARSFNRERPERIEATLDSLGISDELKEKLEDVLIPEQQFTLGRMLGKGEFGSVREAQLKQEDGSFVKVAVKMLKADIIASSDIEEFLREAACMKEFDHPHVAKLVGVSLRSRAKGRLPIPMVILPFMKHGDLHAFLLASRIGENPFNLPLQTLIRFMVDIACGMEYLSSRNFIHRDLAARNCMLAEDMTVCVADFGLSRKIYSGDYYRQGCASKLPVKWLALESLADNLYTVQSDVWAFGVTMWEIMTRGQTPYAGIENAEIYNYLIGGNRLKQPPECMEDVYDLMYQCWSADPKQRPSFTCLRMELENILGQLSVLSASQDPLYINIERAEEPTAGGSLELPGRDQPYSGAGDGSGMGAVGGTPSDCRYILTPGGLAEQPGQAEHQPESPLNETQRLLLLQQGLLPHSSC

CN(C(=O)CN1CCOCC1)c1ccc2sc3c(-c4cccc5c(=O)cc(N6CC7CCC(C6)O7)oc45)cccc3c2c1 [NU5455]
inhibition at 1 µM: -5.1%
